From US20090186915A1, “Compositions and methods for treatment of glioblastoma, gliosarcoma, NSCLC, and head and neck cancer” (Unibioscreen S. A., priority 2006, published 2009)

Assays:
E2F1 = E2F1 expression (Western blot), DU-145; type: cell-based, human; conditions: 10 μM
CCL2, CXCL-I and CXCL-8 = assay: ELISA of CCL2, CXCL1 and CXCL8, Hs683 cells; type: cell-based, human; conditions: 1 μM single or 5×1
P-glycoprotein = assay: P-gp ATPase activity (P-gp Drug interaction Assay Kit); type: biochemical
Method: In order to test drug interaction with P-glucoprotein (herein-after referred as P-gp) we used an assay based on the study of modulation of ATPase activity from enriched P-gp membrane vesicle preparation (the following kit has been used: P-gp Drug interaction Assay Kit commercially available from SPI BIO France). P-gp ATPase activity was measured by a spectrophotometric method based on monitoring of ADP formation in the vesicle suspension medium. The basal ATPase activity was defined as the activity determined in the absence of any added drug. […]

Rb, pRb [1] = assay: Western blot of Rb and p-Rb, PC-3; type: cell-based, human; conditions: 10 μM, 48 and 72 hours
Method: Cell extracts were prepared by the lysis of subconfluent PC-3 cells directly in boiling lysis buffer (10 mM Tris, pH 7.4, 1 mM Na3O4V, 1% SDS, pH 7.4). Approximately 40 μg of extracted proteins (evaluated by the bicinchoninic acid protein assay; Pierce, Perbio Science, Erembodegem, Belgium) was then loaded onto a denaturing polyacrylamide gel. The proteins submitted to Western blot analyses were detected using primary antibodies provided by: 1) CST Technologies, Bioké, Leiden, The Netherlands: Rb (1:2000) and p-Rb (1:1000); 2) BD Transduction Laboratories, Erembodegem, Belgium: E2F1 (1:400); and 3) AbCam, Cambridge, UK: tubulin (1:3000, used as a loading control). The antibody for LC-3 protein (1:500) was kindly provided by Dr. Yasuko Kondo. Western blot analyses were performed as detailed previously.

GM-CFC = assay: HALO hematotoxicity assay, human GM-CFC; type: cell-based; conditions: 7 days culture, iATP
Method: (§1) Investigation of the hematotoxic potential of UNBS5162 was undertaken by HemoGenix (Colorado Springs, Colo.). The effects of UNBS5162 on stem and progenitor cell populations from murine and human bone marrow were assessed using HALO (Hematopoietic/Hematotoxicity Assay through Luminescence Output) technology. Stem and hematopoietic progenitor cell populations were isolated from mouse and human bone marrow samples, plated at a concentration of 1.0×10^4 cells/well and cultured for 5 and 7 days, respectively, in the presence of growth factors and increasing concentrations of UNBS5162 ranging from 0.5 nM to 50 μM. The proliferative or growth potential of cell populations was determined from intracellular ATP (iATP) concentrations and a luciferin/luciferase bioluminescence signal detection system. All samples were assayed in eight replicates. The results are presented as estimated inhibitory concentration (IC) values.

[2] = system: ets homologous factor (EHF); assay: EHF mRNA by quantitative RT-PCR, DU-145; type: cell-based, human
Method: Reverse transcription reactions were carried out in a thermal cycler (Thermocycler; Westburg, Leusden, The Netherlands). The purification of the cDNAs produced was undertaken using the High Pure PCR Product Purification Kit (Roche Diagnostics, Mannheim, Germany) in accordance with the manufacturer's instructions. Quantitative PCR reactions were performed with 50 ng of purified cDNA in a LightCycler thermocycler instrument (Roche Diagnostics) using LCFastart DNA Master SYBR Green 1 (Roche Diagnostics). After amplification, data analysis was carried out by means of the “Fit points” algorithm of the LightCycler quantification software. A standard curve enabled cDNA quantification of samples to be effected. The primers used were provided by Invitrogen and selected using the HYBSIMULATOR software (Advanced Gene Computing Technology, Irvine, Calif.). The primers used were as follows: ets homologous factor (EHF): forward: 5′-[…]-3′; reverse: 5′-CGAACTCTTGGAAAGGGA-3′; E2F1: forward: 5′-[…]-3′; reverse: 5′-GGATGTGGTTCTTGGACTT-3′.

Rb, pRb [3] = assay: Western blot of Rb and p-Rb, DU-145; type: cell-based, human; conditions: 10 μM
LC3-II = LC3-II immunoblot, DU-145; type: cell-based, human; conditions: 10 μM
Mk-CFC = assay: HALO hematotoxicity assay, mouse Mk-CFC; type: cell-based; conditions: 5 days culture, iATP
Method: as §1

DU-145 = assay: Quantitative videomicroscopy, DU-145; type: cell-based, human; conditions: 1 μM
Method: Use was made of computer-assisted phase-contrast microscopy (quantitative videomicroscopy) in the attempt to elucidate an overall picture of UNBS5162's mechanism of action. […] In addition, 10 μM UNBS5162 caused a marked enlargement in PC-3 cells by the end of the 6-day treatment period compared with the start of the experiment.

CFC-GEMM = assay: HALO hematotoxicity assay, human CFC-GEMM; type: cell-based; conditions: 7 days culture, iATP
Method: as §1

CN(C)CCN1C(=O)c2cccc3cc(NC(N)=O)cc(c23)C1=O [UNBS5162, N-{2-[2-(dimethylamino)ethyl]-1,3-dioxo-2,3-dihydro-1H-benzo[de]isoquinolin-5-yl}urea]
E2F1 expression (E2F1): a decrease but not the complete disappearance of Rb protein and E2F1 expression
CCL2, CXCL-I and CXCL-8 production (ELISA) (CCL2, CXCL-I and CXCL-8): a marked UNBS5162-mediated decrease in CCL2, CXCL-I and CXCL-8 production
modulation of Pgp ATPase activity (P-glycoprotein; 100 μM (data not shown)): do not affect Pgp ATPase activity
modulation of basal P-gp ATPase activity (P-glycoprotein; 2, 10, and 50 μM): does not affect ATPase activity
Rb protein expression (Rb, pRb [1]): completely abolished Rb protein expression
IC50 (GM-CFC; 168 h): 3.74 µM
IC90 (GM-CFC; 168 h): 19.9 µM
IC75 (GM-CFC): 8.12 µM
EHF mRNA expression ([2]; 1 μM): markedly decreased EHF mRNA expression in a transient manner
EHF mRNA levels ([2]; 10 μM, 72 hours after treatment): marked sustained decrease in EHF mRNA levels
Rb protein expression (Rb, pRb [3]): a decrease but not the complete disappearance of Rb protein and E2F1 expression
LC3-II protein (marker of autophagy) (LC3-II): induced the up-regulation of LC3-II protein
IC50 (Mk-CFC; 120 h): 5.94 µM
IC90 (Mk-CFC; 120 h): 9.61 µM
IC75 (Mk-CFC): 7.53 µM
cell dynamics (videomicroscopy) (DU-145): induced no detectable changes
IC50 (CFC-GEMM; 168 h): 2.57 µM
IC90 (CFC-GEMM; 168 h): 12.8 µM
IC75 (CFC-GEMM): 5.67 µM
